Assay results taken from ChEMBL document CHEMBL1148244, “Inactivation of gamma-aminobutyric acid aminotransferase by (S)-4-amino-4,5-dihydro-2-furancarboxylic acid does not proceed by the expected aromatization mechanism” (Bioorg Med Chem Lett, 2004).

Target: 4-aminobutyrate aminotransferase (Sus scrofa) (UniProt P80147)
Experiment: Kinact for pyridoxal 5'-phosphate (PLP)-dependent Gamma-amino-N-butyrate transaminase at pH 7.4

Sequence of 4-aminobutyrate aminotransferase (Sus scrofa) (P80147 whole entry, looked up): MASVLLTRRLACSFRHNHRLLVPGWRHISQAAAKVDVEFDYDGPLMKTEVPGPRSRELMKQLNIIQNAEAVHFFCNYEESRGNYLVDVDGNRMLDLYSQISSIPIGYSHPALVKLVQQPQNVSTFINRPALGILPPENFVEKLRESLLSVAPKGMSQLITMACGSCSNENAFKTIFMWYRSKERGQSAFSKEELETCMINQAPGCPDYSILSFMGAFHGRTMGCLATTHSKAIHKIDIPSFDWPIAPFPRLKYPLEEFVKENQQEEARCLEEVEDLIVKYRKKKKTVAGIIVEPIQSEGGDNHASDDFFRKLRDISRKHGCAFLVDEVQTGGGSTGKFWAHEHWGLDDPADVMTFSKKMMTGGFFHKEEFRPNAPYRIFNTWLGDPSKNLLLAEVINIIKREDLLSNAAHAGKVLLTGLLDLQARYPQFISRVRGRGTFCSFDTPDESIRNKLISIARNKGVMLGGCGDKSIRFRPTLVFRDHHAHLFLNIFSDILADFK

K inact: 2.4 min⁻¹
SMILES: NC1C=C(C(=O)O)OC1 (stereo unspecified)
